Experimental data from patent publication US6750228B1, “Aromatic sulfone hydroxamic acid metalloprotease inhibitor” (priority 1997, dated 2004).
Like-named read-outs stand apart in the source and are kept apart here.

Assays:
Assay in all cases: biochemical
MMP-1 = molecular target: T1, MMP-1 (Homo sapiens, UniProt P03956); settings: read-out: MMP-1 IC50
T1 construct: made in house; host or cells: transfected HT-1080 cells (provided by Dr. Harold Welgus, Washington University)
T1 sequence (P03956 100-469): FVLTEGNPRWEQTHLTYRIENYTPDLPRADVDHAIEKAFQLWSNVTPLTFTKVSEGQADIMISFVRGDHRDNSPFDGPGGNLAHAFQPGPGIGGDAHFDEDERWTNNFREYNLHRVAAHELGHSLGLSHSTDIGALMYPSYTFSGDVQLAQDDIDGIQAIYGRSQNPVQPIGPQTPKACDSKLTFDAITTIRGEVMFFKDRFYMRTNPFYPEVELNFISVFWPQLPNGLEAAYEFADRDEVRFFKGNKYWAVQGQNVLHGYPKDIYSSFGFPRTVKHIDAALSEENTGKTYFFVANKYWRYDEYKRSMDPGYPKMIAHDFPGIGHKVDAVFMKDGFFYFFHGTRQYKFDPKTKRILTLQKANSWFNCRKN
Method in brief: (§1)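 Assay buffer 100 mM Tris-HCl, 100 mM NaCl, 10 mM CaCl2, pH 7.5. Activated MMP + inhibitor, 5 min RT; then methoxycoumarin peptide substrate, 4 μM final. Readout fluorescence; IC50 calculated.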

MMP-13 = molecular target: T2, MMP-13 (Homo sapiens, UniProt P45452); settings: recombinant human MMP-13, MCA peptide substrate 4 μM, pH 7.5, room temperature; read-out: MMP-13 IC50
T2 construct: made in house; host or cells: baculovirus / insect cells
Method in brief: as §1

MMP-2 = molecular target: T3, MMP-2 (Homo sapiens, UniProt P08253); settings: recombinant human MMP-2, MCA peptide substrate 4 μM, pH 7.5, room temperature; read-out: MMP-2 IC50
T3 construct: made in house; provided by Dr. Gregory Goldberg, Washington University
T3 sequence (P08253 110-660): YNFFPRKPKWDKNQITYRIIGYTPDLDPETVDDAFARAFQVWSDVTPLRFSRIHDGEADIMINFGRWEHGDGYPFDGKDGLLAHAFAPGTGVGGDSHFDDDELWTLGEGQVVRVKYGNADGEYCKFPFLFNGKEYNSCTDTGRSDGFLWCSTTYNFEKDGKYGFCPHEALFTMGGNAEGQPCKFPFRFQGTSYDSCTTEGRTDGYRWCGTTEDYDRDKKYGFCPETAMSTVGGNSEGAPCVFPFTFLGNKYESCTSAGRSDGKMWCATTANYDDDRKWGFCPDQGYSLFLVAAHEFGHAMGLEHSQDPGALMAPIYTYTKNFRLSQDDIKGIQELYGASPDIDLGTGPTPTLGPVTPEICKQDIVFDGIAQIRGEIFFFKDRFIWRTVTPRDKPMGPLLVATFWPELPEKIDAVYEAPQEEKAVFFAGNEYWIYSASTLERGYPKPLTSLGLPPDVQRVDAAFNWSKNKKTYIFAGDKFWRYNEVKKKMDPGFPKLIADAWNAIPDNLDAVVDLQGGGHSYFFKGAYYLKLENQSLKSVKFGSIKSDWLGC
Method in brief: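 APMA- or trypsin-activated human MMPs (MMP-1 from transfected HT-1080 cells, MMP-2 from transfected cells) preincubated with inhibitor in 1% DMSO at room temperature, then 4 μM MCA-Pro-Leu-Gly-Leu-Dpa-Ala-Arg-NH2 added in Tris/NaCl/CaCl2 buffer pH 7.5. IC50 from fluorescence reduction versus inhibitor concentration.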

[1] = recombinant human MMP-1, MCA peptide substrate 4 μM, pH 7.5, room temperature

Row | SMILES | IC50 (MMP-1; [1]) | IC50 (MMP-13) | IC50 (MMP-2) | IC50 (MMP-1)
1 | O=C(NO)C1(S(=O)(=O)c2ccc(N3CCC(c4cccc5c4CCCC5)CC3)cc2)CCOCC1 [Example 473] | > 10 µM | 160 nM | 3300 nM | 
2 | O=C(NO)C1(S(=O)(=O)c2ccc(N3CCC(n4cnc5ccccc54)CC3)cc2)CCOCC1 [Example 475] | > 10 µM | 27.1 nM | 500 nM | 
3 | CCCCCOc1ccc(COC2CCN(c3ccc(S(=O)(=O)C4(C(=O)NO)CCOCC4)cc3)CC2)cc1 [Example 477] | > 10 µM | 11.3 nM | 160 nM | 
4 | O=C(NO)C1(S(=O)(=O)c2ccc(N3CCC(Oc4ccc(Br)cc4)CC3)cc2)CCOCC1 [Example 479] | > 10 µM | 5 nM | 60 nM | 
5 | O=C(NO)C1(S(=O)(=O)c2ccc(N3CCC(Oc4ccc(OC(F)(F)F)cc4)CC3)cc2)CCOCC1 [Example 480] | > 10 µM | 18.6 nM | 155 nM | 
6 | O=C(NO)C1(S(=O)(=O)c2ccc(N3CCC(Oc4ccc([N+](=O)[O-])cc4C(F)(F)F)CC3)cc2)CCOCC1 [Example 481] | > 10 µM | 50 nM | 1400 nM | 
7 | O=C(NO)C1(S(=O)(=O)c2ccc(N3CCC(Oc4ccc5c(c4)CCCC5)CC3)cc2)CCOCC1 [Example 483] | > 10 µM | 32.6 nM | 10.6 nM | 
8 | O=C(NO)C1(S(=O)(=O)c2ccc(N3CCc4ccccc4C3)cc2)CCOCC1 [Example 484] | > 10 µM | 240 nM | 100 nM | 
9 | CC1CCCCN1c1ccc(S(=O)(=O)C2(C(=O)NO)CCOCC2)cc1 (stereo not drawn) [Example 486] | > 10 µM | 5400 nM | 4000 nM | 
10 | CC1CN(c2ccc(S(=O)(=O)C3(C(=O)NO)CCOCC3)cc2)CCN1c1ccccc1 (stereo not drawn) [Example 487] | > 10 µM | 140 nM | 800 nM | 
11 | O=C(NO)C1(S(=O)(=O)c2ccc(N3CCN(C4CCCCC4)CC3)cc2)CCOCC1 [Example 489] | > 10 µM | 770 nM | 1900 nM | 
12 | Cc1cccc(N2CCN(c3ccc(S(=O)(=O)C4(C(=O)NO)CCOCC4)cc3)CC2)c1C [Example 490] | > 10 µM | 61 nM | 3000 nM | 
13 | O=C(NO)C1(S(=O)(=O)c2ccc(N3CC4CC3CN4Cc3ccccc3)cc2)CCOCC1 (stereo not drawn) [Example 493] | > 10 µM | > 10000 nM | > 10000 nM | 
14 | CC1CCN(c2ccc(S(=O)(=O)C3(C(=O)NO)CCOCC3)cc2)CC1 [Example 495] | > 10 µM | 14.5 nM | 21.1 nM | 
15 | CC1CCCN(c2ccc(S(=O)(=O)C3(C(=O)NO)CCOCC3)cc2)C1 (stereo not drawn) [Example 496] | > 10 µM | 30.7 nM | 200 nM | 
16 | O=C(NO)C1(S(=O)(=O)c2ccc(N3CCC(CCOCc4ccc(F)cc4)CC3)cc2)CCOCC1 [Example 500] | > 10 µM | 3 nM | 22 nM | 
17 | O=C(NO)C1(S(=O)(=O)c2ccc(N3CCCC(COCc4ccccc4)C3)cc2)CCOCC1 (stereo not drawn) [Example 504] | > 10 µM | 6.3 nM | 220 nM | 
18 | O=C(NO)C1(S(=O)(=O)c2ccc(N3CCCC(COCc4ccc(F)cc4)C3)cc2)CCOCC1 (stereo not drawn) [Example 505] | > 10 µM | 14 nM | 72 nM | 
19 | O=C(NO)C1(S(=O)(=O)c2ccc(N3CCCC(COCc4ccc(Cl)c(Cl)c4)C3)cc2)CCOCC1 (stereo not drawn) [Example 508] | > 10 µM | 19.3 nM | 210 nM | 
20 | O=C(NO)C1(S(=O)(=O)c2ccc(N3CCCCC3CCOCc3ccccc3)cc2)CCOCC1 (stereo not drawn) [Example 509] | > 10 µM | 520 nM | > 10000 nM | 
21 | O=C(NO)C1(S(=O)(=O)c2ccc(N3CCCCC3CCOCc3ccc(F)cc3)cc2)CCOCC1 (stereo not drawn) [Example 510] | > 10 µM | 7700 nM | > 10000 nM | 
22 | O=C(NO)C1(S(=O)(=O)c2ccc(N3CCCCC3CCOCc3cccc(C(F)(F)F)c3)cc2)CCOCC1 (stereo not drawn) [Example 512] | > 10 µM | 7700 nM | > 10000 nM | 
23 | O=C(NO)C1(S(=O)(=O)c2ccc(N3CCCCC3CCOCc3ccc(Cl)c(Cl)c3)cc2)CCOCC1 (stereo not drawn) [Example 513] | > 10 µM | 7700 nM | > 10000 nM | 
24 | O=C(Nc1ccccc1)OC1CCN(c2ccc(S(=O)(=O)C3(C(=O)NO)CCOCC3)cc2)CC1 [Example 515] |  | 8 nM | 27 nM | > 10 µM
25 | O=C(NCCc1ccccc1)OC1CCN(c2ccc(S(=O)(=O)C3(C(=O)NO)CCOCC3)cc2)CC1 [Example 516] | > 10 µM | 14.8 nM | 300 nM | 
26 | CCCCOc1ccc(NC(=O)OC2CCN(c3ccc(S(=O)(=O)C4(C(=O)NO)CCOCC4)cc3)CC2)cc1 [Example 518] | > 10 µM | 11.4 nM | 350 nM | 

Now from value to molecule:

Row | IC50 (MMP-1; [1]) | IC50 (MMP-13) | IC50 (MMP-2) | IC50 (MMP-1) | SMILES
27 | > 10 µM | 12.1 nM | 300 nM |  | N#Cc1cc(F)cc(OC2CCN(c3ccc(S(=O)(=O)C4(C(=O)NO)CCOCC4)cc3)CC2)c1 [Example 474]
28 | > 10 µM | 25.4 nM | 140 nM |  | CCNCc1ccc(COC2CCN(c3ccc(S(=O)(=O)C4(C(=O)NO)CCOCC4)cc3)CC2)cc1 [Example 476]
29 | > 10 µM | 16.4 nM | 306 nM |  | CC(C)CCOc1ccc(COC2CCN(c3ccc(S(=O)(=O)C4(C(=O)NO)CCOCC4)cc3)CC2)cc1 [Example 478]
30 | > 10 µM | 6 nM | 4 nM |  | CC(C)c1cccc(OC2CCN(c3ccc(S(=O)(=O)C4(C(=O)NO)CCOCC4)cc3)CC2)c1 [Example 482]
31 | > 10 µM | 8 nM | 4.2 nM |  | Cc1cccc(OC2CCN(c3ccc(S(=O)(=O)C4(C(=O)NO)CCOCC4)cc3)CC2)c1 [Example 485]
32 | > 10 µM | 140 nM | 370 nM |  | O=C(NO)C1(S(=O)(=O)c2ccc(N3CCN(C4CCCC4)CC3)cc2)CCOCC1 [Example 488]
33 | > 10 µM | > 10000 nM | > 10000 nM |  | O=C(NO)C1(S(=O)(=O)c2ccc(N3CC4CC3CN4c3cccc(F)c3)cc2)CCOCC1 (stereo not drawn) [Example 491]
34 | > 10 µM | 6100 nM | > 10000 nM |  | O=C(NO)C1(S(=O)(=O)c2ccc(N3CC4CC3CO4)cc2)CCOCC1 (stereo not drawn) [Example 492]
35 | > 10 µM | 650 nM | 3300 nM |  | Cc1ccccc1N1CC2CC1CN2c1ccc(S(=O)(=O)C2(C(=O)NO)CCOCC2)cc1 (stereo not drawn) [Example 494]
36 | > 10 µM | 50 nM | 8000 nM |  | CN(Cc1cccnc1)C(=O)C1CCN(c2ccc(S(=O)(=O)C3(C(=O)NO)CCOCC3)cc2)CC1 [Example 497]
37 | > 10 µM | 0.9 nM | 19.3 nM |  | O=C(NO)C1(S(=O)(=O)c2ccc(N3CCC(CCOCc4ccccc4)CC3)cc2)CCOCC1 [Example 499]
38 | > 10 µM | 14 nM | 63 nM |  | O=C(NO)C1(S(=O)(=O)c2ccc(N3CCC(CCOCc4ccc(Cl)c(Cl)c4)CC3)cc2)CCOCC1 [Example 502]
39 | > 10 µM | 10 nM | 50 nM |  | O=C(NO)C1(S(=O)(=O)c2ccc(N3CCC(CCOCc4cccc(C(F)(F)F)c4)CC3)cc2)CCOCC1 [Example 503]
40 | > 10 µM | 15.8 nM | 210 nM |  | O=C(NO)C1(S(=O)(=O)c2ccc(N3CCCC(COCc4cccc(C(F)(F)F)c4)C3)cc2)CCOCC1 (stereo not drawn) [Example 507]
41 | > 10 µM | 14 nM | 1100 nM |  | CC(C)NC(=O)OC1CCN(c2ccc(S(=O)(=O)C3(C(=O)NO)CCOCC3)cc2)CC1 [Example 517]
42 | > 10 µM | 45.4 nM | 1300 nM |  | O=C(Nc1ccc(Oc2ccccc2)cc1)OC1CCN(c2ccc(S(=O)(=O)C3(C(=O)NO)CCOCC3)cc2)CC1 [Example 519]
